Data: patent US20240082235A1, “METHOD FOR TREATING OR INHIBITING CYTOMEGALOVIRUS INFECTION USING SMALL MOLECULES TARGETING PROTEIN PHOSPHATASE 1” (HOWARD UNIVERSITY, priority 2020, published 2024)

Tests used:
[1] = target: PP1 (Homo sapiens, UniProt P62136); conditions: SPR; Lin et al. 2017; read-out: KD of binding to PP1; cited from earlier work
[2] = target: PP1 with peptides containing an RVxF sequence (Homo sapiens, UniProt P62136); conditions: in vitro; Ammosova et al. 2012, 2014; cited from earlier work
PP1 with peptides containing an RVxF sequence, sequence (P62136 whole entry): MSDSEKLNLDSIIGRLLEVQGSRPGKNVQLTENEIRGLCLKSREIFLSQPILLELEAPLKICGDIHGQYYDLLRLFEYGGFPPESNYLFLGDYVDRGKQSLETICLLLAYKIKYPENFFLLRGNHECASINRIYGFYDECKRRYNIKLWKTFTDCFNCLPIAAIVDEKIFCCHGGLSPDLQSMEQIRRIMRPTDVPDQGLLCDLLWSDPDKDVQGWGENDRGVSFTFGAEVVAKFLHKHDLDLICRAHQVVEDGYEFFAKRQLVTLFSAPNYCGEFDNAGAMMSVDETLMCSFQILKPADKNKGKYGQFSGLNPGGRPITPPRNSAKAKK

[3] = target: T1, PP1-cdNIPP1 RATA interaction (Homo sapiens, UniProt P62136); assay: Split NanoBit protein:protein interaction assay, WT PP1 with RVxF-mutant cdNIPP1; assay type: binding; conditions: FIG. 4B, cdNIPP1 with RVxF mutation
T1 construct: NanoBiT large bit (LgBiT)
T1 sequence (P62136 whole entry): as above

[4] = system: CMV immediate early proteins; assay: Expression of CMV immediate early proteins in infected cells; assay type: cell-based, human cytomegalovirus; conditions: FIG. 5B
[5] = system: CMV; assay: Plaque assay of human foreskin fibroblasts infected with CMV; assay type: cell-based, human cytomegalovirus; conditions: percentage compared to untreated control, FIG. 5A
[6] = system: CMV IE1, IE2 and UL32 mRNA; assay: Viral mRNA expression by RT-qPCR in infected human foreskin fibroblasts; assay type: cell-based, human cytomegalovirus; conditions: fold-change compared to infected cells treated with vehicle only, FIG. 5C
[7] = target: T2, PP1-cdNIPP1 interaction (Homo sapiens, UniProt P62136); assay: Split NanoBit protein:protein interaction assay, WT PP1 with WT cdNIPP1; assay type: binding; conditions: FIG. 4B
T2 construct: NanoBiT large bit (LgBiT)
T2 sequence (P62136 whole entry): as above

PP1, sequence (P62136 whole entry): as above

## CCNC(=O)NC(=O)C(C)OC(=O)c1c2c(nc3ccccc13)/C(=C/c1ccc(OC)c(OC)c1)CC2 (stereo not shown) [1E7-03]
[1]
  Kd: 6.2 µM
[2]
  Interaction of PP1 with peptides containing an RVxF sequence: disrupted the interaction of PP1 with peptides containing an RVxF sequence
[3]
  Effect on PP1-cdNIPP1 RATA interaction: did not have an effect
[4]
  Expression of CMV immediate early proteins: reduced
[5]
  Inhibition of CMV replication: concentration-dependent inhibition of CMV replication
[6]
  Viral mRNA expression (IE1, IE2, UL32): no effect on viral transcription
[7]
  Effect on PP1-cdNIPP1 interaction: inhibited the PP1-cdNIPP1 interaction
